# Source: the supplement of paper PMC10307832
# Tests used:
# Assay in all cases: relative viability (nuclei count vs DMSO), 5 days (fraction); higher = more cells survive
# Afatinib + Alpelisib = compound: CN(C)C/C=C/C(=O)Nc1cc2c(Nc3ccc(F)c(Cl)c3)ncnc2cc1O[C@H]1CCOC1 [Afatinib] + Cc1nc(NC(=O)N2CCC[C@H]2C(N)=O)sc1-c1ccnc(C(C)(C)C(F)(F)F)c1 [Alpelisib] (partner 2 µM)
# Outline: (§1)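 Lung cancer cell lines were seeded in 1536-well plates and dosed by pin tool the next day, with either a single drug or a fixed anchor-drug dose combined with five library-drug doses (not always all listed) spaced in √10 steps. Five days later, one step fixed the cells and stained their nuclei (final 0.05% Triton X-100, 1% formaldehyde, 1 ug/ml Hoechst), and nuclei were counted on 4× images. Relative viability is the nuclei count in treated wells divided by the count in vehicle wells, and each value is the median of duplicate plates.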
# Afatinib + Pemetrexed = compound: CN(C)C/C=C/C(=O)Nc1cc2c(Nc3ccc(F)c(Cl)c3)ncnc2cc1O[C@H]1CCOC1 [Afatinib] + Nc1nc2[nH]cc(CCc3ccc(C(=O)N[C@@H](CCC(=O)O)C(=O)O)cc3)c2c(=O)[nH]1 [Pemetrexed] (partner 0.2 µM)
# Outline: as §1
# Afatinib + Olaparib = compound: CN(C)C/C=C/C(=O)Nc1cc2c(Nc3ccc(F)c(Cl)c3)ncnc2cc1O[C@H]1CCOC1 [Afatinib] + O=C(c1cc(Cc2n[nH]c(=O)c3ccccc23)ccc1F)N1CCN(C(=O)C2CC2)CC1 [Olaparib] (partner 8 µM)
# Outline: as §1
# Afatinib + Palbociclib = compound: CN(C)C/C=C/C(=O)Nc1cc2c(Nc3ccc(F)c(Cl)c3)ncnc2cc1O[C@H]1CCOC1 [Afatinib] + CC(=O)c1c(C)c2cnc(Nc3ccc(N4CCNCC4)cn3)nc2n(C2CCCC2)c1=O [Palbociclib] (partner 0.5 µM)
# Outline: as §1
Cell Line,relative viability (Afatinib + Alpelisib; first compound 0.005 µM),relative viability (Afatinib + Alpelisib; first compound 0.01581 µM),relative viability (Afatinib + Alpelisib; first compound 0.05 µM),relative viability (Afatinib + Alpelisib; first compound 0.1581 µM),relative viability (Afatinib + Alpelisib; first compound 0.5 µM),relative viability (Afatinib + Pemetrexed; first compound 0.005 µM),relative viability (Afatinib + Pemetrexed; first compound 0.01581 µM),relative viability (Afatinib + Pemetrexed; first compound 0.05 µM),relative viability (Afatinib + Pemetrexed; first compound 0.1581 µM),relative viability (Afatinib + Pemetrexed; first compound 0.5 µM),relative viability (Afatinib + Olaparib; first compound 0.005 µM),relative viability (Afatinib + Olaparib; first compound 0.01581 µM),relative viability (Afatinib + Olaparib; first compound 0.05 µM),relative viability (Afatinib + Olaparib; first compound 0.1581 µM),relative viability (Afatinib + Olaparib; first compound 0.5 µM),relative viability (Afatinib + Palbociclib; first compound 0.005 µM),relative viability (Afatinib + Palbociclib; first compound 0.01581 µM),relative viability (Afatinib + Palbociclib; first compound 0.05 µM),relative viability (Afatinib + Palbociclib; first compound 0.1581 µM),relative viability (Afatinib + Palbociclib; first compound 0.5 µM)
EKVX,0.713,0.704,0.46,0.187,0.156,0.318,0.271,0.254,0.187,0.185,0.602,0.687,0.534,0.283,0.227,0.317,0.265,0.188,0.147,0.141
EMC-BAC-2,0.734,0.635,0.635,0.603,0.634,0.441,0.496,0.462,0.523,0.511,0.53,0.501,0.595,0.554,0.531,0.539,0.531,0.551,0.498,0.519
EPLC-272H,0.775,0.818,0.737,0.691,0.731,0.349,0.381,0.301,0.285,0.318,0.567,0.776,0.727,0.734,0.595,0.31,0.294,0.283,0.284,0.292
H3255,0.209,0.135,0.168,0.123,0.123,0.365,0.313,0.306,0.307,0.273,0.332,0.273,0.277,0.277,0.236,0.267,0.269,0.289,0.26,0.258
HARA,0.45,0.652,0.397,0.313,0.397,0.21,,0.185,0.217,0.225,0.688,,0.344,0.462,0.391,0.188,0.242,0.204,0.189,0.197
HCC-15,0.855,0.816,0.902,0.855,0.889,0.226,0.222,,0.207,0.234,0.662,0.765,0.744,0.668,0.722,0.743,0.753,0.702,0.755,0.746
HCC-44,0.803,0.854,0.727,0.728,0.872,0.654,0.645,0.733,0.657,0.661,0.958,0.921,0.974,1,1.01,1,0.968,1.05,0.944,1.02
HCC-78,0.373,0.345,0.273,0.228,0.217,0.924,0.869,0.904,0.915,0.902,0.792,0.932,0.852,0.717,0.667,0.46,0.41,0.452,0.594,0.461
HCC-366,0.375,0.423,0.41,0.308,0.485,0.16,0.173,0.146,0.196,0.168,0.299,0.38,0.391,0.3,0.367,0.469,0.361,0.443,0.37,0.456
HCC-827,0.172,0.157,0.183,0.17,0.184,0.118,0.157,0.153,0.153,0.159,0.135,0.0842,0.145,0.158,0.142,0.158,0.139,0.164,0.171,0.136
HOP-62,0.977,0.599,1.14,1.08,0.689,0.305,0.302,0.328,0.338,0.292,0.624,0.329,0.606,0.439,0.423,0.415,0.431,0.523,0.48,0.445
LC-2-ad,0.892,0.441,0.819,0.687,0.784,0.275,0.273,0.259,0.28,0.274,0.752,0.754,0.724,0.707,0.701,0.494,0.489,0.483,0.447,0.477
LCLC-97TM1,0.175,0.286,0.313,0.184,0.211,0.17,0.187,0.191,0.21,0.152,0.424,0.351,0.348,0.273,0.397,0.222,0.232,0.23,0.239,0.201
LCLC-103H,0.806,1.09,0.997,0.939,1,0.485,0.478,0.514,0.492,0.48,0.743,0.744,0.764,0.682,0.773,0.452,0.495,0.443,0.436,0.485
LK-2,1.34,,1.04,1.12,1.12,0.33,0.229,0.239,0.326,0.248,0.705,0.591,0.725,0.766,0.79,0.621,0.633,0.656,0.673,0.584
